How the values were obtained:
KAT5 = biological target: T1, KAT5 (Homo sapiens, UniProt Q92993); assay: KAT5 enzyme inhibition assay (SAMDI mass spectrometry); format: biochemical; details: His-TEV-FL KAT5-Flag enzyme construct
T1 construct: His-TEV tag (N, cleaved yes); made in house

KAT6A = biological target: T2, KAT6A (Homo sapiens, UniProt Q92794); assay: KAT6A enzyme inhibition assay (SAMDI mass spectrometry); format: biochemical; details: His-TEV-KAT6A 501-784 enzyme construct
T2 construct: His-TEV tag (N, cleaved yes); made in house
T2 sequence (Q92794 with tags, fused parts or gaps): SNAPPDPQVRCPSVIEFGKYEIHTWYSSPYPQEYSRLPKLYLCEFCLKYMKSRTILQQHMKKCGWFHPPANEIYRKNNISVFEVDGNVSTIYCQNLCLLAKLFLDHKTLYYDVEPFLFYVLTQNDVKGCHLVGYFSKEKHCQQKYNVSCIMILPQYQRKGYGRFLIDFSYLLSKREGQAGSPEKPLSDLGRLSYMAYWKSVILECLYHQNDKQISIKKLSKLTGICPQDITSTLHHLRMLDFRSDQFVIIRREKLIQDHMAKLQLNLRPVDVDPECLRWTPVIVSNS

T1 sequence (Q92993 with tags, fused parts or gaps): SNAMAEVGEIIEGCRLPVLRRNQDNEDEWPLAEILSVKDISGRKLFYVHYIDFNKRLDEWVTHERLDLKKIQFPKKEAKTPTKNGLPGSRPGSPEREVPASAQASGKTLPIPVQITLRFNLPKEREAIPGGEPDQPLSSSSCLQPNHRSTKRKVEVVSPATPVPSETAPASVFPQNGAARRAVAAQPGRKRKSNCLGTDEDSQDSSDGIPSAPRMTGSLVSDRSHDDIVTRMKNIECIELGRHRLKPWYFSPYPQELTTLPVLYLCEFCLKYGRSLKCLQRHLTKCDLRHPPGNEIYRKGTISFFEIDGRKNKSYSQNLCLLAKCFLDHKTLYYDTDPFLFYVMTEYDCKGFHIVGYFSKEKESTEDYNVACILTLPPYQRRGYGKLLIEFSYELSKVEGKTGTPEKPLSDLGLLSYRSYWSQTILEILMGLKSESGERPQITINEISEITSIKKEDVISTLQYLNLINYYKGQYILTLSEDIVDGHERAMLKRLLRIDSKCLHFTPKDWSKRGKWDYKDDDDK

| Compound | IC50 (KAT5) | IC50 (KAT6A) |
| --- | --- | --- |
| Cc1c(-c2ccccc2)ccc(Cl)c1C(=O)NNS(=O)(=O)C1CCCCC1 [Compound I-308] | 50 to 100 µM | > 100 µM |
| COc1cccc(S(=O)(=O)NNC(=O)c2cc(-c3ccccc3)cc(C)c2F)c1 [Compound I-232] | ≤ 10 µM | ≤ 10 µM |
| Cn1cnc(-c2ccc(F)c(C(=O)NNS(=O)(=O)c3ccccc3)c2F)c1 [Compound I-259] | 10 to 50 µM | ≤ 10 µM |
| CNC(=O)CCNC(=O)Cn1nc(C)c(F)c1C(=O)NNS(=O)(=O)C1CCCCC1 [Compound I-505] | > 100 µM | > 100 µM |
| Cc1cc(C)c(F)c(C(=O)NNS(=O)(=O)C2CCCCC2)c1 [Compound I-347] | 10 to 50 µM | > 100 µM |
| O=C(NNS(=O)(=O)c1cccc(-c2ccccc2)c1)c1ccccc1 [Compound I-521] | > 100 µM | > 100 µM |
| O=C(NNS(=O)(=O)c1cccc(Cl)c1)c1ccccc1F [Compound I-127] | > 100 µM | 10 to 50 µM |
| Cc1ccc(-c2ccccc2)c(C)c1C(=O)NNS(=O)(=O)c1ccccc1 [Compound I-200] | > 100 µM | > 100 µM |
| O=C(NNS(=O)(=O)C1CCCCC1)c1cc(-c2cccc(CO)c2)cc(Cl)c1F [Compound I-485] | ≤ 10 µM | 10 to 50 µM |
| O=C(NNS(=O)(=O)C1CCOCC1)c1cc(Cn2ccnc2)cc(Cl)c1F [Compound I-440] | > 100 µM | > 100 µM |
| O=C(NNS(=O)(=O)C1CCCCC1)c1cc(-c2cc(F)cc(F)c2)cc(Cl)c1F [Compound I-392] | ≤ 10 µM | 10 to 50 µM |
| Cc1cc(-c2ccccc2)cc(C(=O)N[C@@H](C#N)C2CCCCC2)c1F [Compound I-257] | > 100 µM | > 100 µM |
| COCCN1CC(CS(=O)(=O)NNC(=O)c2cc(-c3ccccc3)cc(C)c2F)C1 [Compound I-208] | 10 to 50 µM | 10 to 50 µM |
| COc1cc(Cl)c(F)c(C(=O)NNS(=O)(=O)CC2CCCCC2)c1 [Compound I-394] | ≤ 10 µM | 10 to 50 µM |
| CCNC(=O)c1cc(Cl)c(F)c(C(=O)NNS(=O)(=O)C2CCCCC2)c1 [Compound I-472] | > 100 µM | > 100 µM |
| COCCN1CCCC(S(=O)(=O)NNC(=O)c2cc(-c3ccccc3)cc(C)c2F)C1 (stereo not drawn) [Compound I-101] | 10 to 50 µM | 10 to 50 µM |
| COc1ccc(CS(=O)(=O)NNC(=O)c2cc(-c3ccccc3)cc(C)c2F)cc1 [Compound I-81] | 50 to 100 µM | 10 to 50 µM |
| O=C(NNS(=O)(=O)C1CCOCC1)c1cc(Cn2cccn2)cc(Cl)c1F [Compound I-464] | > 100 µM | > 100 µM |
| CC(C)(C)OC(=O)N1CCCC(CS(=O)(=O)NNC(=O)c2cc(-c3ccccc3)cc(Cl)c2F)C1 (stereo not drawn) [Compound I-401] | ≤ 10 µM | ≤ 10 µM |
| O=C(NNS(=O)(=O)c1ccccc1)c1ncccc1F [Compound I-252] | > 100 µM | 50 to 100 µM |
| O=S(=O)(NNc1n[nH]c2cccc(F)c12)c1ccccc1 [Compound I-45] | > 100 µM | > 100 µM |
| Cc1cc(-c2cccc(F)c2)cc(C(=O)NNS(=O)(=O)CC2CCCN(C(=O)C3CCC3)C2)c1F (stereo not drawn) [Compound I-274] | ≤ 10 µM | ≤ 10 µM |
| Cc1cc(-c2ccccc2)cc(C(=O)NNS(=O)(=O)C2CCCNC2)c1F (stereo not drawn) [Compound I-97] | > 100 µM | 50 to 100 µM |
| O=S(=O)(Nc1ncc(-c2cc(-c3ccccc3)ccc2F)[nH]1)c1ccccc1 [Compound I-67] | > 100 µM | > 100 µM |
| O=C(NNS(=O)(=O)c1cc(-c2ccccc2)cc(Cl)c1F)C1CCCCC1 [Compound I-524] | 50 to 100 µM | 10 to 50 µM |
| COCCN1CCCC(CS(=O)(=O)NNC(=O)c2cc(-c3cccc(F)c3)cc(C)c2F)C1 (stereo not drawn) [Compound I-408] | ≤ 10 µM | 10 to 50 µM |
| COc1ccc(Cn2ncc3c(C(=O)NNS(=O)(=O)c4ccccc4)cc(-c4ccccc4)cc32)cc1 [Compound I-247] | 50 to 100 µM | 10 to 50 µM |
